Source: ChEMBL document CHEMBL5375992, “Design and Development of IKZF2 and CK1α Dual Degraders” (J Med Chem, 2023)
≈ marks a conversion by molar mass, not a printed value. Calls of active or inactive are those of the source. The calls are words filed in the database; no cut-off is given here.

Key:
[1] = test system: OCI-Ly3; assay: Upregulation of Bax transcript level in human OCILY3 cells at 1 uM incubated for 24 hrs by RT-qPCR analysis; assay type: functional, cell-based
[2] = test system: OCI-Ly3; assay: Upregulation of MDM2 protein expression in human OCILY3 cells at […] incubated for 24 hrs by Western blot analysis; assay type: functional, cell-based
[3] = target: Cereblon/Ikaros (Homo sapiens) (UniProt Q96SW2+Q13422); assay: Protac activity at CRBN/IKZF1 (unknown origin) transfected in HEK293T cells at 100 nM incubated for 24 hrs by flow cytometry analysis relative to control; assay type: cell-based
[4] = target: T1, Protein cereblon/Zinc finger protein Helios (Homo sapiens) (UniProt Q96SW2+Q9UKS7); assay: Protac activity at CRBN/IKZF2 (unknown origin) transfected in HEK293T cells at 100 nM incubated for 24 hrs by flow cytometry analysis relative to control; assay type: cell-based
T1 sequence (Q96SW2 whole entry, looked up): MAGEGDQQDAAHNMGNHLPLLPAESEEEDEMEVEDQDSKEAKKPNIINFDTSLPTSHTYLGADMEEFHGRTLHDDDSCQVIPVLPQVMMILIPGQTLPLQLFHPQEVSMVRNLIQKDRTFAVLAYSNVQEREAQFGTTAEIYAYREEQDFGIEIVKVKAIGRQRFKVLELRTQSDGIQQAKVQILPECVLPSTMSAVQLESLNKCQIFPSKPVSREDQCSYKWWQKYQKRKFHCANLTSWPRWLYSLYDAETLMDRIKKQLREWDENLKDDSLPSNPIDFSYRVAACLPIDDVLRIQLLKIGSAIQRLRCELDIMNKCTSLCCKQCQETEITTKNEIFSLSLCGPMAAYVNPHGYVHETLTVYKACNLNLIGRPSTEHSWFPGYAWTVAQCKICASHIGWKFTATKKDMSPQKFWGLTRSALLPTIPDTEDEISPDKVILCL
T1 sequence (Q9UKS7 whole entry, looked up): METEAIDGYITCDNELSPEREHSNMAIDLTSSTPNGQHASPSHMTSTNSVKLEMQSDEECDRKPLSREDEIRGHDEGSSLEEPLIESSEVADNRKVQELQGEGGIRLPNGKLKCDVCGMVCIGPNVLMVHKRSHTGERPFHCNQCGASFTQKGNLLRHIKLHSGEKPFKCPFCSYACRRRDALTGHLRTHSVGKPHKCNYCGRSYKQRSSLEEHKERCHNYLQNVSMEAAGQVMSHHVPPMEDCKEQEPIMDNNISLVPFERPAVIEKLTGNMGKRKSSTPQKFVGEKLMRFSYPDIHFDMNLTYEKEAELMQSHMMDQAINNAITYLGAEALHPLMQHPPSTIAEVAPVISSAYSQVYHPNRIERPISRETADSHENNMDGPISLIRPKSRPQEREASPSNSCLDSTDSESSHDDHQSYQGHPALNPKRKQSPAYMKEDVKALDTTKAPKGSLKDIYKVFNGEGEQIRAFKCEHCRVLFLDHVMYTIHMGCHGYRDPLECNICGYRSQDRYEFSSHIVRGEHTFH

[5] = target: T2, Cereblon/Casein kinase I alpha (Homo sapiens) (UniProt P48729+Q96SW2); assay: Protac activity at CRBN/CK1alpha (unknown origin) transfected in HEK293T cells at 100 nM incubated for 24 hrs by flow cytometry analysis relative to control; assay type: cell-based
T2 sequence (P48729 2-337 limits assumed): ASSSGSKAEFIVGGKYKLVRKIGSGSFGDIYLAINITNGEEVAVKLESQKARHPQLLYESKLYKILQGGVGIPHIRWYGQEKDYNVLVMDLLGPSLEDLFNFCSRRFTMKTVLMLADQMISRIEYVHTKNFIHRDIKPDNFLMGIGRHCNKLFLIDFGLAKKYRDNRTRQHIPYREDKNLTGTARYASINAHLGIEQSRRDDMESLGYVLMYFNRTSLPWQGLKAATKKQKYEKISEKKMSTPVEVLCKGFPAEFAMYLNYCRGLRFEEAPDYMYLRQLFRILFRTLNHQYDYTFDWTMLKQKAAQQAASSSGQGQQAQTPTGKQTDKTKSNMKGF
T2 sequence (Q96SW2 whole entry partner): as the sequence (Q96SW2 whole entry, looked up) above

[6] = target: T3, Protein cereblon/Eukaryotic peptide chain release factor GTP-binding subunit ERF3A (Homo sapiens) (UniProt Q96SW2+P15170); assay: Protac activity at CRBN/GSPT1 (unknown origin) transfected in HEK293T cells at 100 nM incubated for 24 hrs by flow cytometry analysis relative to control; assay type: cell-based
T3 sequence (P15170 whole entry, looked up): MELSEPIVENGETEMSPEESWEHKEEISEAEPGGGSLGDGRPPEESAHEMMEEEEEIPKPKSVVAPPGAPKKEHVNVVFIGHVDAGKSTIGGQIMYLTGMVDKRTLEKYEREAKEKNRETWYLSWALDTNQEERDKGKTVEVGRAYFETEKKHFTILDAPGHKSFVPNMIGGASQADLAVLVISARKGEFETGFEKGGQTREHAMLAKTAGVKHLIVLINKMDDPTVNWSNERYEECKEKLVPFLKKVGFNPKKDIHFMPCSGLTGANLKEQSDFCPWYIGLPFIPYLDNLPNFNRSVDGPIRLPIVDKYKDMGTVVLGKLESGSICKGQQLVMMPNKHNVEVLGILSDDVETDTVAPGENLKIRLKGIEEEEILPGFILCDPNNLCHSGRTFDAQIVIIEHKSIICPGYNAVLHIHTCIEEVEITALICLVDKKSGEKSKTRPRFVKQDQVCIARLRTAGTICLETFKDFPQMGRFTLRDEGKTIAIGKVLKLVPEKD
T3 sequence (Q96SW2 whole entry, looked up): as the sequence (Q96SW2 whole entry, looked up) above

[7] = Solubility of compound in DMSO; assay type: physicochemical; settings: DMSO; read-out: solubility
[8] = target: T2, Cereblon/Casein kinase I alpha (Homo sapiens); assay: Protac activity at CRBN/CK1alpha in human MOLM-13 cells at 50 nM incubated for 2 hrs by proteomic analysis; assay type: cell-based
[9] = test system: A2780; assay: Cytotoxicity against human A2780 cells incubated for 5 days by MTT assay; assay type: functional, cell-based; settings: A2780, 120 h
[10] = test system: OCI-Ly3; assay: Cytotoxicity against human OCILY3 cells incubated for 5 days by MTT assay; assay type: functional, cell-based; settings: OCI-Ly3, 120 h
[11] = target: T2, Cereblon/Casein kinase I alpha (Homo sapiens); assay: Protac activity at CRBN/CK1alpha in human A2780 cells assessed as relative ratio at 1 nM incubated for 24 hrs by Western blotting analysis relative to DMSO; assay type: cell-based
[12] = target: T2, Cereblon/Casein kinase I alpha (Homo sapiens); assay: Protac activity at CRBN/CK1alpha in human A2780 cells assessed as relative ratio at 10 nM incubated for 24 hrs by Western blotting analysis relative to DMSO; assay type: cell-based
[13] = target: T2, Cereblon/Casein kinase I alpha (Homo sapiens); assay: Protac activity at CRBN/CK1alpha in human A2780 cells assessed as relative ratio at 100 nM incubated for 24 hrs by Western blotting analysis relative to DMSO; assay type: cell-based
[14] = target: T2, Cereblon/Casein kinase I alpha (Homo sapiens); assay: Protac activity at CRBN/CK1alpha in human A2780 cells assessed as relative ratio at 1 uM incubated for 24 hrs by Western blotting analysis relative to DMSO; assay type: cell-based
[15] = target: T2, Cereblon/Casein kinase I alpha (Homo sapiens); assay: Protac activity at CRBN/CK1alpha in human A2780 cells assessed as relative ratio at 10 uM incubated for 24 hrs by Western blotting analysis relative to DMSO; assay type: cell-based
[16] = target: T3, Protein cereblon/Eukaryotic peptide chain release factor GTP-binding subunit ERF3A (Homo sapiens); assay: Protac activity at CRBN/GSPT1 in human A2780 cells assessed as relative ratio at 1 nM incubated for 24 hrs by Western blotting analysis relative to DMSO; assay type: cell-based
[17] = target: T3, Protein cereblon/Eukaryotic peptide chain release factor GTP-binding subunit ERF3A (Homo sapiens); assay: Protac activity at CRBN/GSPT1 in human A2780 cells assessed as relative ratio at 10 nM incubated for 24 hrs by Western blotting analysis relative to DMSO; assay type: cell-based
[18] = target: T3, Protein cereblon/Eukaryotic peptide chain release factor GTP-binding subunit ERF3A (Homo sapiens); assay: Protac activity at CRBN/GSPT1 in human A2780 cells assessed as relative ratio at 100 nM incubated for 24 hrs by Western blotting analysis relative to DMSO; assay type: cell-based
[19] = target: T3, Protein cereblon/Eukaryotic peptide chain release factor GTP-binding subunit ERF3A (Homo sapiens); assay: Protac activity at CRBN/GSPT1 in human A2780 cells assessed as relative ratio at 1 uM incubated for 24 hrs by Western blotting analysis relative to DMSO; assay type: cell-based
[20] = target: T3, Protein cereblon/Eukaryotic peptide chain release factor GTP-binding subunit ERF3A (Homo sapiens); assay: Protac activity at CRBN/GSPT1 in human A2780 cells assessed as relative ratio at 10 uM incubated for 24 hrs by Western blotting analysis relative to DMSO; assay type: cell-based
[21] = target: T2, Cereblon/Casein kinase I alpha (Homo sapiens); assay: Protac activity at CRBN/CK1alpha in human OCILY3 cells assessed as relative ratio at 1 nM incubated for 24 hrs by Western blotting analysis relative to DMSO; assay type: cell-based
[22] = target: T2, Cereblon/Casein kinase I alpha (Homo sapiens); assay: Protac activity at CRBN/CK1alpha in human OCILY3 cells assessed as relative ratio at 10 nM incubated for 24 hrs by Western blotting analysis relative to DMSO; assay type: cell-based
[23] = target: T2, Cereblon/Casein kinase I alpha (Homo sapiens); assay: Protac activity at CRBN/CK1alpha in human OCILY3 cells assessed as relative ratio at 100 nM incubated for 24 hrs by Western blotting analysis relative to DMSO; assay type: cell-based
[24] = target: T2, Cereblon/Casein kinase I alpha (Homo sapiens); assay: Protac activity at CRBN/CK1alpha in human OCILY3 cells assessed as relative ratio at 1 uM incubated for 24 hrs by Western blotting analysis relative to DMSO; assay type: cell-based
[25] = target: T2, Cereblon/Casein kinase I alpha (Homo sapiens); assay: Protac activity at CRBN/CK1alpha in human OCILY3 cells assessed as relative ratio at 10 uM incubated for 24 hrs by Western blotting analysis relative to DMSO; assay type: cell-based
[26] = target: T3, Protein cereblon/Eukaryotic peptide chain release factor GTP-binding subunit ERF3A (Homo sapiens); assay: Protac activity at CRBN/GSPT1 in human OCILY3 cells assessed as relative ratio at 1 nM incubated for 24 hrs by Western blotting analysis relative to DMSO; assay type: cell-based
[27] = target: T3, Protein cereblon/Eukaryotic peptide chain release factor GTP-binding subunit ERF3A (Homo sapiens); assay: Protac activity at CRBN/GSPT1 in human OCILY3 cells assessed as relative ratio at 10 nM incubated for 24 hrs by Western blotting analysis relative to DMSO; assay type: cell-based
[28] = target: T3, Protein cereblon/Eukaryotic peptide chain release factor GTP-binding subunit ERF3A (Homo sapiens); assay: Protac activity at CRBN/GSPT1 in human OCILY3 cells assessed as relative ratio at 100 nM incubated for 24 hrs by Western blotting analysis relative to DMSO; assay type: cell-based
[29] = target: T3, Protein cereblon/Eukaryotic peptide chain release factor GTP-binding subunit ERF3A (Homo sapiens); assay: Protac activity at CRBN/GSPT1 in human OCILY3 cells assessed as relative ratio at 1 uM incubated for 24 hrs by Western blotting analysis relative to DMSO; assay type: cell-based
[30] = target: T3, Protein cereblon/Eukaryotic peptide chain release factor GTP-binding subunit ERF3A (Homo sapiens); assay: Protac activity at CRBN/GSPT1 in human OCILY3 cells assessed as relative ratio at 10 uM incubated for 24 hrs by Western blotting analysis relative to DMSO; assay type: cell-based
[31] = target: T1, Protein cereblon/Zinc finger protein Helios (Homo sapiens); assay: Protac activity at CRBN/IKZF2 in human A2780 cells assessed as relative ratio at 1 nM incubated for 24 hrs by Western blotting analysis relative to DMSO; assay type: cell-based
[32] = target: T1, Protein cereblon/Zinc finger protein Helios (Homo sapiens); assay: Protac activity at CRBN/IKZF2 in human A2780 cells assessed as relative ratio at 10 nM incubated for 24 hrs by Western blotting analysis relative to DMSO; assay type: cell-based
[33] = target: T1, Protein cereblon/Zinc finger protein Helios (Homo sapiens); assay: Protac activity at CRBN/IKZF2 in human A2780 cells assessed as relative ratio at 100 nM incubated for 24 hrs by Western blotting analysis relative to DMSO; assay type: cell-based
[34] = target: T1, Protein cereblon/Zinc finger protein Helios (Homo sapiens); assay: Protac activity at CRBN/IKZF2 in human A2780 cells assessed as relative ratio at 1 uM incubated for 24 hrs by Western blotting analysis relative to DMSO; assay type: cell-based
[35] = target: T1, Protein cereblon/Zinc finger protein Helios (Homo sapiens); assay: Protac activity at CRBN/IKZF2 in human A2780 cells assessed as relative ratio at 10 uM incubated for 24 hrs by Western blotting analysis relative to DMSO; assay type: cell-based
[36] = test system: A2780; assay: Upregulation of Bax transcript level in human A2780 cells at 1 uM incubated for 24 hrs by RT-qPCR analysis; assay type: functional, cell-based
[37] = test system: A2780; assay: Upregulation of p21 transcript level in human A2780 cells at 1 uM incubated for 24 hrs by RT-qPCR analysis; assay type: functional, cell-based
[38] = test system: OCI-Ly3; assay: Upregulation of p21 transcript level in human OCILY3 cells at 1 uM incubated for 24 hrs by RT-qPCR analysis; assay type: functional, cell-based
[39] = test system: OCI-Ly3; assay: Upregulation of p21 protein expression in human OCILY3 cells at […] incubated for 24 hrs by Western blot analysis; assay type: functional, cell-based
[40] = test system: OCI-Ly3; assay: Upregulation of p53 protein expression in human OCILY3 cells at […] incubated for 24 hrs by Western blot analysis; assay type: functional, cell-based
[41] = test system: OCI-Ly3; assay: Upregulation of Bax protein expression in human OCILY3 cells at […] incubated for 24 hrs by Western blot analysis; assay type: functional, cell-based
[42] = test system: A2780; assay: Upregulation of MDM2 protein expression in human A2780 cells at […] incubated for 24 hrs by Western blot analysis; assay type: functional, cell-based
[43] = test system: A2780; assay: Upregulation of p21 protein expression in human A2780 cells at […] incubated for 24 hrs by Western blot analysis; assay type: functional, cell-based
[44] = test system: A2780; assay: Upregulation of p53 protein expression in human A2780 cells at […] incubated for 24 hrs by Western blot analysis; assay type: functional, cell-based
[45] = test system: A2780; assay: Upregulation of Bax protein expression in human A2780 cells at […] incubated for 24 hrs by Western blot analysis; assay type: functional, cell-based
[46] = target: T3, Protein cereblon/Eukaryotic peptide chain release factor GTP-binding subunit ERF3A (Homo sapiens); assay: Protac activity at CRBN/GSPT1 in human NCI-H1048 cells at 10 to 100 nM incubated for 24 hrs by Western blotting analysis; assay type: cell-based; settings: dose 10-100 nM

In the case of `COc1cccc2c1OCC(C(=O)Nc1ccc3c(c1)CN(C1CCC(=O)NC1=O)C3=O)=C2` (stereo unspecified), the Activity [1] is reported as “Active”, the Activity [2] is reported as “Active” and the Activity [3] is reported as 11%. For the same compound, the Activity [4] was 82%, the Activity [5] was 80% and the Activity [6] was 4%. For the same compound, the solubility [7] was 50 mM (≈ 22.4 mg/mL), the Activity [8] was “Active” and the EC50 [9] was 27 nM. The EC50 [10] was 14 nM, the Ratio [11] was 0.5 and the Ratio [12] was 0.22. For the same compound, the Ratio [13] was 0.18, the Ratio [14] was 0.17 and the Ratio [15] was 0.17. The Ratio [16] was 0.96, the Ratio [17] was 0.9 and the Ratio [18] was 0.9. It also gave a Ratio [19] of 1, a Ratio [20] of 1 and a Ratio [21] of 0.63. It also gave a Ratio [22] of 0.28, a Ratio [23] of 0.25 and a Ratio [24] of 0.26. It also gave a Ratio [25] of 0.27, a Ratio [26] of 0.83 and a Ratio [27] of 0.67. The Ratio [28] was 0.65, the Ratio [29] was 0.73 and the Ratio [30] was 0.8. The Ratio [31] was 1, the Ratio [32] was 0.77 and the Ratio [33] was 0.24. For the same compound, the Ratio [34] was 0.08, the Ratio [35] was 0.06 and the Activity [36] was “Active”. The Activity [37] was “Active”, the Activity [38] was “Active” and the Activity [39] was “Active”. The Activity [40] was “Active”, the Activity [41] was “Active” and the Activity [42] was “Active”. For the same compound, the Activity [43] was “Active”, the Activity [44] was “Active” and the Activity [45] was “Active”. For the same compound, the Activity [46] was “inactive”.
